Test results taken from US20230365530A1, “QUINAZOLINE-2,4-DIAMINE DERIVATIVE AND PHARMACEUTICAL COMPOSITION FOR PREVENTING OR TREATING CANCER COMPRISING SAME AS ACTIVE INGREDIENT” (THE ASEAN FOUNDATION, priority 2020, published 2023).

The molecules below were run against EHMT2 (Euchromatic histone-lysine N-methyltransferase 2) (Homo sapiens (Human), UniProt Q96KQ7) (assay: EHMT2 enzyme inhibition, LANCE TR-FRET). Conditions: histone H3 peptide, 1 hour at room temperature.
Type: biochemical
Procedure: In order to analyze the enzyme inhibitory efficacy of the compounds of Examples 1 to 89, EHMT2 (Euchromatic histone-lysine N-methyltransferase 2) enzyme activity was measured using the LANCE TR-FRET™ analysis method of Perkin Elmer. When the EHMT2 enzyme is activated, the 9th lysine residue of the biotinylated-histone peptide is methylated and the EU-conjugated antibody is combined to the methylated histone peptide. Then, when the complex is irradiated with light of excitation wavelength, the complex emits light having a wavelength of 665 nm through FRET phenomenon. Accordingly, fluorescence was measured, and IC50 values were calculated through a software to evaluate the EHMT2 enzyme activity inhibitory effect of the compounds of Examples 1 to 89.
Specific experimental methods are as follows. First, the compounds of Examples 1 to 89 of 1 nM to 100 μM (4× conc.) were put into a 384 well plate (25 μL/well), and 2 μM EEMT2/G9a enzyme (4× conc.) was put into the 384 well plate (25 μL/well). The plate was then centrifuged at 1,500 rpm for 5 seconds after sealing the plate with plate sealing foil. After incubating the EHMT2/G9a enzyme, SAM, and the compounds of Examples above at room temperature for 10 minutes, 2 μM histone H3 peptide (4× conc.) was added to the 384-well plate (25 μL/well). After sealing the plate with plate sealing foil and centrifuging at 1,500 rpm for 5 seconds, an enzymatic reaction was performed at room temperature for 1 hour. Upon completion of the enzyme reaction, 5 μL each of 200 nM Ulight™-Streptavidin (4× conc.) and 8 nM Eu-antibody (4× conc.) was added to each well of the plate. The plate was sealed with plate sealing foil, centrifuged at 1,500 rpm for 5 seconds and reacted at room temperature for 1 hour. The signal values were measured with Envision (Ex 320 nm, Em 665 nm), and all background values obtained by reacting without enzyme were deleted from the measured raw data values. Then, the EHMT2 enzyme activity inhibitory effect of the compounds of Examples 1 to 89 was converted into % values, and compared with the EHMT2 activity when treated with 4% DMSO vehicle (=0 nM compound) as 100%.

Sequence of EHMT2 (Euchromatic histone-lysine N-methyltransferase 2) (Q96KQ7 whole entry): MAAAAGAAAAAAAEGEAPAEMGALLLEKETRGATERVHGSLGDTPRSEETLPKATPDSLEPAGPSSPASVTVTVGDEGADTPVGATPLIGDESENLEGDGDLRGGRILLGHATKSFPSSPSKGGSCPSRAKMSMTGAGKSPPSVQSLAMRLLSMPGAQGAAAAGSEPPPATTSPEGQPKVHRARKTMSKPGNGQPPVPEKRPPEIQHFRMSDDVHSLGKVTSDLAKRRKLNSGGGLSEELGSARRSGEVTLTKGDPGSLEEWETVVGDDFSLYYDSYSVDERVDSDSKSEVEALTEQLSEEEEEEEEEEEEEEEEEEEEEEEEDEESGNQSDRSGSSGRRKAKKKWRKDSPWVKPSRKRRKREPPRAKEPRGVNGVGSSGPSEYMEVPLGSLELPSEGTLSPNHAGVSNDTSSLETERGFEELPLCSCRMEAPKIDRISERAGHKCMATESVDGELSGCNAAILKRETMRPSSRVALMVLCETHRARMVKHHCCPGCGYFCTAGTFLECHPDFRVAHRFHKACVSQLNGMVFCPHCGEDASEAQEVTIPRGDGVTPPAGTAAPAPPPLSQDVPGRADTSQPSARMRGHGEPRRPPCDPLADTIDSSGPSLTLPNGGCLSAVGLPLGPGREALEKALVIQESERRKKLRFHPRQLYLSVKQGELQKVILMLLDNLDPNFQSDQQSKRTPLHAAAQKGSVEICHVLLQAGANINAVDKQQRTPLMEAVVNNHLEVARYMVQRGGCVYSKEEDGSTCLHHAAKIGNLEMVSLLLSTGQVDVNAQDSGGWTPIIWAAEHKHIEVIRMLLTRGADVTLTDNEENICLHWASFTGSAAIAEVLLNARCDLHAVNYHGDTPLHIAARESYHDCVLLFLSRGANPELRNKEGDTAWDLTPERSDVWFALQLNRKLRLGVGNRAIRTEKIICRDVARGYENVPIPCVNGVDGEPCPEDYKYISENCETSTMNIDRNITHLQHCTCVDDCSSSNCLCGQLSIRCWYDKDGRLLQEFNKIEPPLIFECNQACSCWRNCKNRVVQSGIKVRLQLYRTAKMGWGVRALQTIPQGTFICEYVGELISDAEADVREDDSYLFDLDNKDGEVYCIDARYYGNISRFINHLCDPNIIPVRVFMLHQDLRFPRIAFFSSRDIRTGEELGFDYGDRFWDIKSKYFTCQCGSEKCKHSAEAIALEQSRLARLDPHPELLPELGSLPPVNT

Row | IC50 [µM] | Structure (SMILES)
1 | < 0.1 | CCN1CCC(Nc2nc(N(C)C)nc3cc(C#CCCN4CCCC4)c(OC)cc23)CC1 [Example 63, N4-(1-ethylpiperidine-4-yl)-6-methoxy-N2,N2-dimethyl-7-(4-(-pyrrolidine-1-yl)-1-butyne-1-yl)quinazoline-2,4-diamine]
2 | < 0.1 | CCN1CCC(Nc2nc(N3CCCC3)nc3cc(C#CCCN4CCCC4)c(OC)cc23)CC1 [Example 64, N-(1-ethylpiperidine-4-yl)-6-methoxy-2-(pyrrolidine-1-yl)-7-(4-(pyrrolidine-1-yl)-1-butyne-1-yl)quinazoline-4-amine]
3 | < 0.1 | CCN1CCC(Nc2nc(N3CCCN(C)CC3)nc3cc(C#CCCN4CCCC4)c(OC)cc23)CC1 [Example 65, N-(1-ethylpiperidine-4-yl)-6-methoxy-2-(4-methyl-1,4-diazepane-1-yl)-7-(4-(pyrrolidine-1-yl)-1-butyne-1-yl) quinazoline-4-amine]
4 | < 0.1 | COc1cc2c(NC3CCN(C(C)C)CC3)nc(N3CCCCC3)nc2cc1/C=C/CCN1CCCCC1 [Example 66, (E)-N-(1-isopropylpiperidine-4-yl)-6-methoxy-2-(piperidine-1-yl)-7-(4-(piperidine-1-yl)-1-butene-1-yl)quinazoline-4-amine]
5 | < 0.1 | CCCN1CCC(Nc2nc(N3CCCCC3)nc3cc(C#CCCN4CCCC4)c(OC)cc23)CC1 [Example 67, 6-methoxy-2-(piperidine-1-yl)-N-(1-propylpiperidine-4-yl)-7-(4-(pyrrolidine-1-yl)-1-butyne-1-yl)quinazoline-4-amine]
6 | < 0.1 | CCCN1CCC(Nc2nc(N3CCCC3)nc3cc(C#CCCN4CCCC4)c(OC)cc23)CC1 [Example 68, 6-methoxy-N-(1-propylpiperidine-4-yl)-2-(pyrrolidine-1-yl)-7-(4-(pyrrolidine-1-yl)-1-butyne-1-yl)quinazoline-4-amine]
7 | < 0.1 | COc1cc2c(NC3CCN(CCO)CC3)nc(N3CCCCC3)nc2cc1C#CCCN1CCCC1 [Example 69, 2-(4-((6-methoxy-2-(piperidine-1-yl)-7-(4-(pyrrolidine-1-yl)-1-butyne-1-yl)quinazoline-4-yl)amino)piperidine-1-yl)ethanol]
8 | < 0.1 | COc1cc2c(NC3CCN(CCO)CC3)nc(N3CCCC3)nc2cc1C#CCCN1CCCC1 [Example 70, 2-(4-((6-methoxy-2-(pyrrolidine-1-yl)-7-(4-(pyrrolidine-1-yl)-1-butyne-1-yl)quinazoline-4-yl)amino)piperidine-1-yl)ethanol]
9 | 0.1 to 1 | COc1cc2c(NCc3cccnc3)nc(N3CCCC3)nc2cc1C#CCCN1CCCC1 [Example 71, 6-methoxy-N-(pyridine-3-ylmethyl)-2-(pyrrolidine-1-yl)-7-(4-(pyrrolidine-1-yl)-1-butyne-1-yl)quinazoline-4-amine]
10 | < 0.1 | CCN1CCC(Nc2nc(N3CC[C@H](F)C3)nc3cc(C#CCCN4CCCC4)c(OC)cc23)CC1 [Example 72, (S)-N-(1-ethylpiperidine-4-yl)-2-(3-fluoropyrrolidine-1-yl)-6-methoxy-7-(4-(pyrrolidine-1-yl)-1-butyne-1-yl)quinazoline-4-amine]
11 | < 0.1 | COc1cc2c(NC3CC(C)(C)NC(C)(C)C3)nc(N3CCCC3)nc2cc1C#CCCN1CCCC1 [Example 73, 6-methoxy-2-(pyrrolidine-1-yl)-7-(4-(pyrrolidine-1-yl)-1-butyne-1-yl)-N-(2,2,6,6-tetramethylpiperidine-4-yl)quinazoline-4-amine]
12 | 0.1 to 1 | COc1cc2c(NC3CCN(C4CC4)CC3)nc(N3CC[C@@H](F)C3)nc2cc1C#CCCN1CCCC1 [Example 74, (R)-N-(1-cyclopropylpiperidine-4-yl)-2-(3-fluoropyrrolidine-1-yl)-6-methoxy-7-(4-(pyrrolidine-1-yl)-1-butyne-1-yl)quinazoline-4-amine]
13 | < 0.1 | COc1cc2c(NC3CCN(C4CC4)CC3)nc(N3CC[C@H](F)C3)nc2cc1C#CCCN1CCCC1 [Example 75, (S)-N-(1-cyclopropylpiperidine-4-yl)-2-(3-fluoropyrrolidine-1-yl)-6-methoxy-7-(4-(pyrrolidine-1-yl)-1-butyne-1-yl)quinazoline-4-amine]
14 | 1 to 10 | COc1cc2c(NC3CCN(C4CC4)CC3)nc(N3CC[C@@H](F)C3)nc2cc1C#CCCN(C)C [Example 76, (R)-N-(1-cyclopropylpiperidine-4-yl)-7-(4-(dimethylamino)-1-butyne-1-yl)-2-(3-fluoropyrrolidine-1-yl)-6-methoxyquinazoline-4-amine]
15 | < 0.1 | CCN1CCC(Nc2nc(N3CC[C@@H](F)C3)nc3cc(C#CCCN4CCCC4)c(OC)cc23)CC1 [Example 77, (R)-N-(1-ethylpiperidine-4-yl)-2-(3-fluoropyrrolidine-1-yl)-6-methoxy-7-(4-(pyrrolidine-1-yl)-1-butyne-1-yl)quinazoline-4-amine]
16 | < 0.1 | CCN1CCC(Nc2nc(N3CCCC3)nc3cc(C#CCCN4CC[C@H](F)C4)c(OC)cc23)CC1 [Example 78, (S)-N-(1-ethylpiperidine-4-yl)-7-(4-(3-fluoropyrrolidine-1-yl)-1-butyne-1-yl)-6-methoxy-2-(pyrrolidine-1-yl)quinazoline-4-amine]
17 | 0.1 to 1 | COc1cc2c(NCCN(C)C)nc(N3CC[C@H](F)C3)nc2cc1C#CCCN1CCCC1 [Example 79, (S)-N1-(2-(3-fluoropyrrolidine-1-yl)-6-methoxy-7-(4-(pyrrolidine-1-yl)-1-butyne-1-yl)quinazoline-4-yl)-N2,N2-dimethylethane-1,2-diamine]
18 | 0.1 to 1 | COc1cc2c(NCCN(C)C)nc(N3CC[C@@H](F)C3)nc2cc1C#CCCN1CCCC1 [Example 80, (R)-N1-(2-(3-fluoropyrrolidine-1-yl)-6-methoxy-7-(4-(pyrrolidine-1-yl)-1-butyne-1-yl)quinazoline-4-yl)-N2,N2-dimethylethane-1,2-diamine]
19 | 0.1 to 1 | CNc1nc(N2CCCC2)nc2cc(C#CCCN3CCCC3)c(OC)cc12 [Example 81, 6-methoxy-N-methyl-2-(pyrrolidine-1-yl)-7-(4-(pyrrolidine-1-yl)-1-butyne-1-yl)quinazoline-4-amine]
20 | < 0.1 | CCCN1CCC(Nc2nc(N(C)C)nc3cc(C#CCCN4CCCC4)c(OC)cc23)CC1 [Example 83, 6-methoxy-N2,N-dimethyl-N4-(1-propylpiperidine-4-yl)-7-(4-(pyrrolidine-1-yl)-1-butyne-1-yl)quinazoline-2,4-diamine]
21 | < 0.1 | CCCN1CCC(Nc2nc(N3CC[C@@H](F)C3)nc3cc(C#CCCN4CCCC4)c(OC)cc23)CC1 [Example 84, (R)-2-(3-fluoropyrrolidine-1-yl)-6-methoxy-N-(1-propylpiperidine-4-yl)-7-(4-(pyrrolidine-1-yl)-1-butyne-1-yl)quinazoline-4-amine]
22 | < 0.1 | COc1cc2c(NC3CCN(C(C)C)CC3)nc(N3CCCC3)nc2cc1/C=C/CCN1CCCC1 [Example 85, (E)-N-(1-isopropylpiperidine-4-yl)-6-methoxy-2-(pyrrolidine-1-yl)-7-(4-(pyrrolidine-1-yl)-1-butene-1-yl)quinazoline-4-amine]
23 | 0.1 to 1 | COc1cc2c(NC3CCN(C(C)C)CC3)nc(N3CCCC3)nc2cc1/C=C/CCN(C)C [Example 86, (E)-7-(4-(dimethylamino)-1-butene-1-yl)-N-(1-isopropylpiperidine-4-yl)-6-methoxy-2-(pyrrolidine-1-yl)quinazoline-4-amine]
